Test results published in patent US20240383908A1, “SYNTHESIS AND APPLICATION OF PHOSPHATASE DEGRADER” (HINOVA PHARMACEUTICALS INC., priority 2021, published 2024).

Target: T1, SHP2 protein (Homo sapiens, UniProt Q06124)
T1 sequence (Q06124 1-593): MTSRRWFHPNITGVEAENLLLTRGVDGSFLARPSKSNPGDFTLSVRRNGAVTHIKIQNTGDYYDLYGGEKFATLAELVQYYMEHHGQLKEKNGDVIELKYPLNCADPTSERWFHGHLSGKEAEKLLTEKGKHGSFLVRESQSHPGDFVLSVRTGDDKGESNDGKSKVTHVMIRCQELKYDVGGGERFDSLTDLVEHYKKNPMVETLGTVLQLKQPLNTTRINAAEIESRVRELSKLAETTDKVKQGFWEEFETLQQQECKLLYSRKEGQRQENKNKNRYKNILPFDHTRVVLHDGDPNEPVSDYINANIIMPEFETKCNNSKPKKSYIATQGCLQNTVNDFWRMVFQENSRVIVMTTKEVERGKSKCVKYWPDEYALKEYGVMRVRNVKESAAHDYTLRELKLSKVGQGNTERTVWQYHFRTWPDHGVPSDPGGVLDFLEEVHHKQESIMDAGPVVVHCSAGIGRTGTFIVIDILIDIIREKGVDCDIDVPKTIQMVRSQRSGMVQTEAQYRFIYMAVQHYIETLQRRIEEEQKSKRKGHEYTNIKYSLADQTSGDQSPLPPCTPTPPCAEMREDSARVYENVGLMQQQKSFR
Experiment: Degradation activity on SHP2 protein in MV-411 cells (Western blot, DC50)
Format: cell-based
Set-up: endogenous in cells
Settings: MV411 cells, 24 hours, read-out: Degradation activity for differenct cell lines MV411 (DC50)
Outline: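 Western blot of SHP2 (GAPDH loading control, 30 μg protein/lane) in lysates of MV-411 cells exposed 24 h to final compound concentrations of 100, 10, 3, 1, 0.3 and 0.1 nM (0.1% DMSO). Degradation relative to DMSO set at 100%; DC50 derived by curve fitting.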

SMILES | DC50 [nM]
CC(=O)NC1(C)CCN(c2cnc(Sc3cccc(NC(=O)CCCCCCCCN4CCN(c5ncc(C(=O)NCc6ccc7c(c6)CN(C6CCC(=O)NC6=O)C7=O)cn5)CC4)c3)cn2)CC1 (centres unmarked) [Compound 85] | > 1000
CC1(N)CCN(c2cnc(Sc3cccc(NC(=O)CCCCCCOC4CN(c5ncc(C(=O)NCc6ccc7c(c6)CN(C6CCC(=O)NC6=O)C7=O)cn5)C4)c3)cn2)CC1 (centres unmarked) [Compound 87] | < 100
Cc1ncsc1-c1ccc([C@H](C)NC(=O)[C@@H]2C[C@@H](O)CN2C(=O)[C@@H](NC(=O)c2cnc(N3CCC4(CN(CCCCC(=O)Nc5cccc(Sc6cnc(N7CCC(C)(N)CC7)cn6)c5)C4)C3)nc2)C(C)(C)C)cc1 [Compound 88] | < 100
CC1(N)CCN(c2cnc(Sc3cccc(NC(=O)CCCCN4CC5(CCN(c6ncc(C(=O)NCc7ccc8c(c7)CN(C7CCC(=O)NC7=O)C8=O)cn6)C5)C4)c3)cn2)CC1 (centres unmarked) [Compound 89] | < 100
CC1(N)CCN(c2cnc(Sc3cccc(NC(=O)CCCCCCCOC4CCN(c5ncc(C(=O)Nc6cccc7c6CN(C6CCC(=O)NC6=O)C7=O)cn5)CC4)c3)cn2)CC1 (centres unmarked) [Compound 92] | > 1000
CC1(N)CCN(c2cnc(Sc3cccc(NC(=O)CCCCCCCOC4CCN(c5ncc(C(=O)Nc6ccc7c(c6)CN(C6CCC(=O)NC6=O)C7=O)cn5)CC4)c3)cn2)CC1 (centres unmarked) [Compound 93] | < 100
CC1(N)CCN(c2cnc(Sc3cccc(NC(=O)CCCCCCCOC4CCN(c5ncc(C(=O)Nc6ccc7c(c6)C(=O)N(C6CCC(=O)NC6=O)C7)cn5)CC4)c3)cn2)CC1 (centres unmarked) [Compound 94] | > 1000
CC1(N)CCN(c2cnc(Sc3cccc(NC(=O)CCCCCCCN4CC5CN(Cc6ccc(COc7cccc8c7CN(C7CCC(=O)NC7=O)C8=O)cc6)CC5C4)c3)cn2)CC1 (centres unmarked) [Compound 95] | < 100
CC1(N)CCN(c2cnc(Sc3cccc(NC(=O)CCN4CC5(CCN(c6ccc(C(=O)NCc7ccc8c(c7)CN(C7CCC(=O)NC7=O)C8=O)nn6)C5)C4)c3)cn2)CC1 (centres unmarked) [Compound 97] | > 1000
Cc1ncsc1-c1ccc([C@H](C)NC(=O)[C@@H]2C[C@@H](O)CN2C(=O)[C@@H](NC(=O)c2ccc(N3CC4CN(CCCCCCCC(=O)Nc5cccc(Sc6cnc(N7CCC(C)(N)CC7)cn6)c5)CC4C3)nn2)C(C)(C)C)cc1 (some centres unmarked) [Compound 99] | < 100
Cc1ncsc1-c1ccc([C@H](C)NC(=O)[C@@H]2C[C@@H](O)CN2C(=O)[C@@H](NC(=O)c2ccc(N3CC[C@H](OCCCCCCCC(=O)Nc4cccc(Sc5cnc(N6CCC(C)(N)CC6)cn5)c4)C3)nn2)C(C)(C)C)cc1 [Compound 101] | < 100
Cc1ncsc1-c1ccc([C@H](C)NC(=O)[C@@H]2C[C@@H](O)CN2C(=O)[C@@H](NC(=O)c2cnc(N3CC[C@@H](OCCCCCCCC(=O)Nc4cccc(Sc5cnc(N6CCC(C)(N)CC6)cn5)c4)C3)nc2)C(C)(C)C)cc1 [Compound 103] | < 100
CC1(N)CCN(c2cnc(Sc3cccc(NC(=O)CCCCCCCN4CC5(CCN(c6ccc(C(=O)NCc7ccc8c(c7)CN(C7CCC(=O)NC7=O)C8=O)nn6)C5)C4)c3)cn2)CC1 (centres unmarked) [Compound 106] | < 100
C[C@@H]1OCC2(CCN(c3cnc(Sc4cccc(NC(=O)CCN5CC6(CCN(c7ccc(C(=O)NCc8ccc9c(c8)CN(C8CCC(=O)NC8=O)C9=O)nn7)C6)C5)c4)cn3)CC2)[C@@H]1N (some centres unmarked) [Compound 108] | < 100
C[C@@H]1OCC2(CCN(c3cnc(Sc4cccc(NC(=O)CCCCN5CC6(CCN(c7ccc(C(=O)NCc8ccc9c(c8)CN(C8CCC(=O)NC8=O)C9=O)nn7)C6)C5)c4)cn3)CC2)[C@@H]1N (some centres unmarked) [Compound 109] | < 100
C[C@@H]1OCC2(CCN(c3cnc(Sc4cccc(NC(=O)CCCCCCCN5CC6(CCN(Cc7ccc(COc8cccc9c8CN(C8CCC(=O)NC8=O)C9=O)cc7)C6)C5)c4)cn3)CC2)[C@@H]1N (some centres unmarked) [Compound 113] | > 1000
CC1(N)CCN(c2cnc(Sc3cccc(NC(=O)CCCCCCCN4CC5(C4)CN(C(=O)/C=C/C(=O)NCc4ccc6c(c4)CN(C4CCC(=O)NC4=O)C6=O)C5)c3)cn2)CC1 (centres unmarked) [Compound 114] | > 1000
Cc1ncsc1-c1ccc([C@H](C)NC(=O)[C@@H]2C[C@@H](O)CN2C(=O)[C@@H](NC(=O)/C=C/C(=O)N2CC3(CN(CCCCCCCC(=O)Nc4cccc(Sc5cnc(N6CCC(C)(N)CC6)cn5)c4)C3)C2)C(C)(C)C)cc1 [Compound 115] | > 1000
Cc1ncsc1-c1ccc([C@H](C)NC(=O)[C@@H]2C[C@@H](O)CN2C(=O)[C@@H](NC(=O)/C=C/C(=O)N2CCC3(CN(CCCCCCC(=O)Nc4cccc(Sc5cnc(N6CCC(C)(N)CC6)cn5)c4)C3)C2)C(C)(C)C)cc1 [Compound 116] | > 1000

SMILES | DC50 [nM]
CC1(N)CCN(c2cnc(Sc3cccc(NC(=O)CCCCCCN4CC5(CCN(C(=O)/C=C/C(=O)NCc6ccc7c(c6)CN(C6CCC(=O)NC6=O)C7=O)C5)C4)c3)cn2)CC1 (centres unmarked) [Compound 117] | > 1000
Cc1ncsc1-c1ccc([C@H](C)NC(=O)[C@@H]2C[C@@H](O)CN2C(=O)[C@@H](NC(=O)c2ccc(N3CC4CCC(C3)N4CCCCCCCCC(=O)Nc3cccc(Sc4cnc(N5CCC(C)(N)CC5)cn4)c3)nn2)C(C)(C)C)cc1 [Compound 118] | 100 to 1000
Cc1ncsc1-c1ccc([C@H](C)NC(=O)[C@@H]2C[C@@H](O)CN2C(=O)[C@@H](NC(=O)c2ccc(N3CCC4(CN(CCCCCOCC(=O)Nc5cccc(Sc6cnc(N7CCC8(CC7)CO[C@@H](C)[C@H]8N)cn6)c5)C4)C3)nn2)C(C)(C)C)cc1 [Compound 120] | < 100
C[C@@H]1OCC2(CCN(c3cnc(Sc4cccc(NC(=O)COCCCCCN5CC6(CCN(c7ccc(C(=O)NCc8ccc9c(c8)CN(C8CCC(=O)NC8=O)C9=O)nn7)C6)C5)c4)cn3)CC2)[C@@H]1N (some centres unmarked) [Compound 121] | < 100
Cc1ncsc1-c1ccc([C@H](C)NC(=O)[C@@H]2C[C@@H](O)CN2C(=O)[C@@H](NC(=O)c2ccc(N3CCC4(CN(CCCCCOCC(=O)Nc5ccc(Sc6cnc(N7CCC(N)(CF)CC7)cn6)cc5)C4)C3)nn2)C(C)(C)C)cc1 [Compound 122] | < 100
NC1(CF)CCN(c2cnc(Sc3ccc(NC(=O)COCCCCCN4CC5(CCN(c6ccc(C(=O)NCc7ccc8c(c7)CN(C7CCC(=O)NC7=O)C8=O)nn6)C5)C4)cc3)cn2)CC1 (centres unmarked) [Compound 123] | 100 to 1000
CC1(N)CCN(c2cnc(Sc3cccc(NC(=O)COCCCCCN4CC5(CCN(c6ccc(C(=O)NCc7ccc8c(c7)CN(C7CCC(=O)NC7=O)C8=O)nn6)C5)C4)c3)cn2)CC1 (centres unmarked) [Compound 124] | < 100
CC1(N)CCN(c2cnc(Sc3cccc(NC(=O)CCCCCCC(=O)N4CC5(CN(C(=O)/C=C/C(=O)NCc6ccc7c(c6)CN(C6CCC(=O)NC6=O)C7=O)C5)C4)c3)cn2)CC1 (centres unmarked) [Compound 125] | > 1000
Cc1ncsc1-c1ccc([C@H](C)NC(=O)[C@@H]2C[C@@H](O)CN2C(=O)[C@@H](NC(=O)[C@@H]2C[C@H]2C(=O)N2CCC3(CN(CCCCCCC(=O)Nc4cccc(Sc5cnc(N6CCC(C)(N)CC6)cn5)c4)C3)C2)C(C)(C)C)cc1 [Compound 126] | 100 to 1000
CC1(N)CCN(c2cnc(Sc3cccc(NC(=O)CCCCCCN4CC5(CCN(C(=O)[C@@H]6C[C@H]6C(=O)NCc6ccc7c(c6)CN(C6CCC(=O)NC6=O)C7=O)C5)C4)c3)cn2)CC1 (some centres unmarked) [Compound 127] | 100 to 1000
CC1(N)CCN(c2cnc(Sc3cccc(NC(=O)CCCCCCCN4CC5(CC(n6cc(C(=O)NCc7ccc8c(c7)CN(C7CCC(=O)NC7=O)C8=O)cn6)C5)C4)c3)cn2)CC1 (centres unmarked) [Compound 128] | < 100
NC1(CF)CCN(c2cnc(Sc3ccc(NC(=O)CCCCN4CC5(CCN(c6ncc(C(=O)NCc7ccc8c(c7)CN(C7CCC(=O)NC7=O)C8=O)cn6)C5)C4)cc3)cn2)CC1 (centres unmarked) [Compound 129] | > 1000
Cc1ncsc1-c1ccc([C@H](C)NC(=O)[C@@H]2C[C@@H](O)CN2C(=O)[C@@H](NC(=O)[C@@H]2C[C@H]2C(=O)N2CCC3(CN(C(=O)CCCCCC(=O)Nc4cccc(Sc5cnc(N6CCC(C)(N)CC6)cn5)c4)C3)C2)C(C)(C)C)cc1 [Compound 130] | < 100
CC1(N)CCN(c2cnc(Sc3cccc(NC(=O)CCCCCC(=O)N4CC5(CCN(C(=O)[C@@H]6C[C@H]6C(=O)NCc6ccc7c(c6)CN(C6CCC(=O)NC6=O)C7=O)C5)C4)c3)cn2)CC1 (some centres unmarked) [Compound 131] | 100 to 1000
C[C@@H]1OCC2(CCN(c3cnc(Sc4cccc(NC(=O)CCN5CC6(CCN(c7ccc(COc8cccc9c8CN(C8CCC(=O)NC8=O)C9=O)nn7)C6)C5)c4)cn3)CC2)[C@@H]1N (some centres unmarked) [Compound 132] | < 100
CC1(N)CCN(c2cnc(Sc3cccc(NC(=O)CCN4CC5(CCN(c6ccc(COc7cccc8c7CN(C7CCC(=O)NC7=O)C8=O)nn6)C5)C4)c3)cn2)CC1 (centres unmarked) [Compound 133] | > 1000
CC1(N)CCN(c2cnc(Sc3cccc(NC(=O)CCCCCCC(=O)N4CC5(CCN(c6ccc(C(=O)NCc7ccc8c(c7)CN(C7CCC(=O)NC7=O)C8=O)nn6)C5)C4)c3)cn2)CC1 (centres unmarked) [Compound 134] | 100 to 1000
NC1(CF)CCN(c2cnc(Sc3cccc(NC(=O)CCCCCCCO[C@H]4CCN(c5ccc(C(=O)NCc6ccc7c(c6)CN(C6CCC(=O)NC6=O)C7=O)nn5)C4)c3)cn2)CC1 (some centres unmarked) [Compound 135] | < 100
CN[C@H](C)C(=O)N[C@@H](C(=O)N1C[C@@H](NC(=O)c2cnc(N3CCC4(CN(CCCCC(=O)Nc5cccc(Sc6cnc(N7CCC(N)(CF)CC7)cn6)c5)C4)C3)nc2)C[C@@H]1C(=O)Nc1c(F)cccc1F)C(C)(C)C [Compound 136] | > 1000
